From patent publication US5440016A, “Peptides of the formula (KFmoc) ZZZ and their uses” (priority 1993, dated 1995)
Square brackets hold non-standard residues; d marks the D form. Peptide text beside a SMILES is read from it. * marks the point of attachment. Phe(4-NO2) = N[C@@H](Cc1ccc([N+](=O)[O-])cc1)C(=O)O; Met(O2) = CS(=O)(=O)CC[C@H](N)C(=O)O; Fmoc = O=C(OCC1c2ccccc2-c2ccccc21)*; Nle = CCCC[C@H](N)C(=O)O; Thz = O=C(O)[C@@H]1CSCN1; Nva = CCC[C@H](N)C(=O)O; Abu = CC[C@H](N)C(=O)O; Aib = CC(C)(N)C(=O)O

What follows are compounds tested on Human red blood cells (RBCs) (assay: Hemolytic activity). Settings: Tables 18-21.
Assay type: cell-based
Description: Each assay was carried out in 96-well culture tissue plates. Four wells per plate contain 125 μl of a non-peptide positive control (1% Triton in de-ionized water), and four wells per plate contain 125 μl of a control blank, phosphate buffered saline (PBS). The hemolytic peptide melittin was used as comparative control. The controls served to detect possible contamination and to calculate the percent hemolysis of each peptide. Human red blood cells (RBCs) were washed with PBS and centrifuged to separate them from the serum. The cells were then resuspended in PBS to a final suspension of 0.5% RBC. 125 μl of this suspension was added to the peptides and controls solution. The release of hemoglobin resulting from the cell lysis was determined by measuring the OD at 414 nm of 100 μl of the supernatant.
In the case of CS(=O)(=O)CC[C@H](NC(=O)[C@H](CCCCN)NC(=O)[C@H](Cc1c[nH]c2ccccc12)NC(=O)[C@H](CCCCN)NC(=O)OCC1c2ccccc2-c2ccccc21)C(N)=O [(KFmoc)WK(MetO2)-NH2] (Fmoc-KWK[Met(O2)]-NH2), the “HD50 (concentration necessary to lyse 50% of the cells)” value is reported as 437 µg/mL.
NCCCC[C@H](NC(=O)OCC1c2ccccc2-c2ccccc21)C(=O)N[C@@H](Cc1c[nH]c2ccccc12)C(=O)N[C@@H](CCCCN)C(=O)N[C@@H](Cc1ccc([N+](=O)[O-])cc1)C(N)=O [(KFmoc)WK(NO2 F)-NH2] (Fmoc-KWK[Phe(4-NO2)]-NH2) was tested, and the “HD50 (concentration necessary to lyse 50% of the cells)” value was 67 µg/mL.
In the case of CCCC[C@H](NC(=O)[C@H](CCCCN)NC(=O)[C@H](Cc1c[nH]c2ccccc12)NC(=O)[C@H](CCCCN)NC(=O)OCC1c2ccccc2-c2ccccc21)C(N)=O [(KFmoc)WK(Nle)-NH2] (Fmoc-KWK[Nle]-NH2), the “HD50 (concentration necessary to lyse 50% of the cells)” value is reported as 91 µg/mL.
For CCC[C@H](NC(=O)[C@H](CCCCN)NC(=O)[C@H](Cc1c[nH]c2ccccc12)NC(=O)[C@H](CCCCN)NC(=O)OCC1c2ccccc2-c2ccccc21)C(N)=O [(KFmoc)WK(Nve)-NH2] (Fmoc-KWK[Nva]-NH2), the “HD50 (concentration necessary to lyse 50% of the cells)” value was 98 µg/mL.
For NCCCC[C@H](NC(=O)OCC1c2ccccc2-c2ccccc21)C(=O)N[C@@H](Cc1c[nH]c2ccccc12)C(=O)N[C@@H](CCCCN)C(=O)N1CSC[C@H]1C(N)=O [(KFmoc)WK(Thiopro)-NH2] (Fmoc-KWK[Thz]-NH2), the “HD50 (concentration necessary to lyse 50% of the cells)” value was 108 µg/mL.
For CC[C@H](NC(=O)[C@H](CCCCN)NC(=O)[C@H](Cc1c[nH]c2ccccc12)NC(=O)[C@H](CCCCN)NC(=O)OCC1c2ccccc2-c2ccccc21)C(N)=O [(KFmoc)WK(aABA)-NH2] (Fmoc-KWK[Abu]-NH2), the “HD50 (concentration necessary to lyse 50% of the cells)” value was 449 µg/mL.
In the case of CC(C)(NC(=O)[C@H](CCCCN)NC(=O)[C@H](Cc1c[nH]c2ccccc12)NC(=O)[C@H](CCCCN)NC(=O)OCC1c2ccccc2-c2ccccc21)C(N)=O [(KFmoc)WK(aAIB)-NH2] (Fmoc-KWK[Aib]-NH2), the “HD50 (concentration necessary to lyse 50% of the cells)” value is reported as 447 µg/mL.
With C[C@H](NC(=O)[C@H](CCCCN)NC(=O)[C@H](Cc1c[nH]c2ccccc12)NC(=O)[C@H](CCCCN)NC(=O)OCC1c2ccccc2-c2ccccc21)C(N)=O [(KFmoc)WKA-NH2] (Fmoc-KWKA-NH2) the “HD50 (concentration necessary to lyse 50% of the cells)” value was 378 µg/mL.
In the case of NCCCC[C@H](NC(=O)OCC1c2ccccc2-c2ccccc21)C(=O)N[C@@H](Cc1c[nH]c2ccccc12)C(=O)N[C@@H](CCCCN)C(=O)N[C@@H](CS)C(N)=O [(KFmoc)WKC-NH2] (Fmoc-KWKC-NH2), the “HD50 (concentration necessary to lyse 50% of the cells)” value is reported as 43 µg/mL.
With NCCCC[C@H](NC(=O)OCC1c2ccccc2-c2ccccc21)C(=O)N[C@@H](Cc1c[nH]c2ccccc12)C(=O)N[C@@H](CCCCN)C(=O)N[C@@H](Cc1ccccc1)C(N)=O [(KFmoc)WKF-NH2] (Fmoc-KWKF-NH2) the “HD50 (concentration necessary to lyse 50% of the cells)” value was 105 µg/mL.
NCCCC[C@H](NC(=O)OCC1c2ccccc2-c2ccccc21)C(=O)N[C@@H](Cc1c[nH]c2ccccc12)C(=O)N[C@@H](CCCCN)C(=O)NCC(N)=O [(KFmoc)WKG-NH2] (Fmoc-KWKG-NH2) was tested, and the “HD50 (concentration necessary to lyse 50% of the cells)” value was 449 µg/mL.
For NCCCC[C@H](NC(=O)OCC1c2ccccc2-c2ccccc21)C(=O)N[C@@H](Cc1c[nH]c2ccccc12)C(=O)N[C@@H](CCCCN)C(=O)N[C@@H](Cc1c[nH]cn1)C(N)=O [(KFmoc)WKH-NH2] (Fmoc-KWKH-NH2), the “HD50 (concentration necessary to lyse 50% of the cells)” value was 312 µg/mL.
CC[C@H](C)[C@H](NC(=O)[C@H](CCCCN)NC(=O)[C@H](Cc1c[nH]c2ccccc12)NC(=O)[C@H](CCCCN)NC(=O)OCC1c2ccccc2-c2ccccc21)C(N)=O [(KFmoc)WKI-NH2] (Fmoc-KWKI-NH2) was tested, and the “HD50 (concentration necessary to lyse 50% of the cells)” value was 141 µg/mL.
NCCCC[C@H](NC(=O)[C@H](CCCCN)NC(=O)[C@H](Cc1c[nH]c2ccccc12)NC(=O)[C@H](CCCCN)NC(=O)OCC1c2ccccc2-c2ccccc21)C(N)=O [(KFmoc)WKK-NH2] (Fmoc-KWKK-NH2) was tested, and the “HD50 (concentration necessary to lyse 50% of the cells)” value was 469 µg/mL.
